Measured values: patent EP1991554B1, “THIOPYR[…] COMPOUNDS, METHOD FOR PREPARING THEREOF AND COMPOSITIONS CONTAINING THEM” (C4T S.C. a.r.l., priority 2006, dated 2007)
Structures can show the parent of a compound that is named as a salt.

Legend:
[1] = test system: γδ T lymphocytes of peripheral blood mononucleate cells (PBMCs); experiment: Cytokine production assay on peripheral blood mononucleate cells (PBMCs), cytofluorimetry; format: cell-based, human; details: for activation at 10 µM / activation at 100 µM / activation at 1000 µM: Homo sapiens, PBMC, read-out: % increase in γδ T lymphocytes producing TNFα; for % increase in γδ T lymphocytes producing INFγ: IPP (10 µM) std = 100
Method: γδ T lymphocyte activation was tested by an assay involving the production of cytokines such as TNFα and IFNγ by the γδ T lymphocytes of peripheral blood mononucleate cells (PBMCs) from healthy donors (Poccia, F. et al., The Journal of Immunology 1997, 159, 6009-6017).
Mononucleate cells (PBMCs) were isolated from the peripheral blood of healthy donors, cultured at 37°C on a complete medium comprising RPMI 1640, 10% FCS, 1% L-glutamine, 1% penicillin-streptomycin in the presence of interleukin 2 (IL-2), T lymphocyte growth factor, and 5% CO2 in a controlled humidity environment, and then stimulated with isopentenyl pyrophosphate (IPP 10 µM) as a positive activation control and with various doses (10 µM, 100 µM) and 1000 µM) of compounds according to the invention, respectively.
Then it was performed a cytofluorimetric labelling using specific monoclonal antibodies (membrane labelling for the expansion and intra-cytoplasm labelling for the cytokines) and a cytofluorimetric measurement in order to establish the percentage of γδ T cells producing TNFα and IFNγ (cytokine production assay).

γδ T lymphocyte line = experiment: ELISA test for the production of TNFα in the γδ T lymphocyte line; format: cell-based, human; details: for EC50: Homo sapiens, T-lymphocyte, 24 h
Method: A buffy coat from a healthy donor with a high basal percentage of γδ T lymphocytes (approximately 6%) was selected for growth of the γδ T lymphocyte lines.
The PBMCs were separated out and cultured at a concentration of 1 x 10^6 cells/ml in the presence of IPP (160 ng/ml) and IL-2 (100 U/ml).
After 7 days incubation at 37°C with 5% CO2, 3 ml of medium were sampled and replaced with the same amount of fresh medium ennched with IL-2 (final concentration 100 U/ml).
After a further 7 days in the incubator an aliquot of the cultured cells was taken to label the membrane and measure the percentage of γδ T cells obtained from the expansion.
This cell line was then used to evaluate the production of TNFα following stimulation of the cells with the compounds under investigation, using an ELISA test.
In the ELISA test there were used cells from the line produced as disclosed above in a concentration of 2.5 x 10^5 cells/ml (5 x 10^4 cells/well).
The cells were then stimulated with the compounds under investigation and with isopentenyl pyrophosphate (IPP) as a reference at scalar doses.
After 24 hours the supernatants from the wells containing the stimulated cells were sampled and the ELISA test was carried out using the "Human TNFα Screening Set" kit (Endogen). The kit provides for treatment with an anti-TNFα biotinylate polyclonal antibody, the addition of peroxidase conjugated with streptavidine and quantitative determination using a chromogenic substrate. The plates were read spectrophotometrically at 450 nm.
Each compound was tested in duplicate.

alkaline phosphatase = experiment: Stability test in alkaline aqueous solution in the presence of alkaline phosphatase (enzyme hydrolysis), HPLC-MS; details: for resistance to hydrolysis: in words, summary of Table 1; for Percentage of non-hydrolysed compound: 2 mM, pH 8 TRIS-HCl buffer, alkaline phosphatase, ambient temperature
Method: The following compounds were selected for the stability tests in alkaline aqueous solution in the presence of alkaline phosphatase (SIGMA Phosphatase, alkaline-Agarose from calf intestine-P0762): [drawing 25] • Solution A: • pH 8 solution: TRIS-HCl buffer and 2 mM of MgCl2; • Solution B: • comparison versus solution A: 2 mM isopentenyl pyrophosphate (IPP) solution; • Solution C: • 2 mM isopentenyl thiopyrophosphate solution (Compound 8) of this invention into Solution A, • Solution D: • Solution of phosphatase enzyme immobilised on a solid substrate (agarose), 50 biological units into 10 ml of Solution A.
20 µl of Solution D were added to 0.5 ml of Solution B. The system was allowed to stand at ambient temperature under stirring. The solution was filtered to remove the enzyme and it was then analysed with HPLC-MS at predetermined time intervals (20, 30, 40, 50 and 60 minutes).
The same procedure was carried out with Solution C.

Vγ9Vδ2 cells = experiment: Peripheral blood mononucleate cell (PBMC) cellular expansion assay; format: cell-based, human; details: tenth day of culture
Method: The effect of the compounds of this invention on the expansion of γδ T lymphocytes was investigated through an assay carried out on γδ T lymphocytes originating from the peripheral blood mononucleate cells from healthy donors (PBMCs).
The PBMCs were separated by centrifuging (Ficoll) on whole blood from samples (residual samples) from 7 healthy donors.
In control experiments the cells were treated with IPP at the same concentrations and under the same Experimental conditions.
On the tenth day of culture the cells were recovered and counted by means of a living count with Trypan Blue, and labelled with the same anti-Vd2-FITC antibody, and finally tested by cytofluorimetry to evaluate the percentage of Vγ9Vδ2 cells.
The absolute number of Vγ9Vδ2 cells was calculated using the following formula: No. of Vγ9Vδ2 cells = (total absolute no.of cells after expansion x%of Vγ9Vδ2cells after expansion)/100. [formula]

Compound | activation at 10 µM [1] | activation at 100 µM [1] | activation at 1000 µM [1] | % increase in γδ T lymphocytes producing INFγ ([1]; PBMC/IL-2, 10 µM) | % increase in γδ T lymphocytes producing INFγ ([1]; PBMC/IL-2, 100 µM) | % increase in γδ T lymphocytes producing INFγ ([1]; PBMC/IL-2, 1000 µM) | EC50 (γδ T lymphocyte line) | also measured
O=P(O)(O)OP(=O)(O)SCCCCCl [Compound 1, S-(4-chlorobutyl) ester of the trisodium salt of thiodiphosphoric acid] | 81% | 127% | 81.5% | 131% | 94% | 132% | 100 µM | –
O=P(O)(O)OP(=O)(O)SCCOCCCl [Compound 2, S-[2-(2-chloroethoxy)ethyl] ester of the trisodium salt of thiodiphosphoric acid] | 60.4% | 71.8% | 765% | 56.4% | 67% | 97.3% | 0.39 µM | –
O=P(O)(O)OP(=O)(O)SCCC1CC1 [Compound 3, S-(2-cyclopropylethyl)ester of the trisodium salt of thiodiphosphoric acid] | 495% | 123% | 158% | – | – | – | 13 µM | –
C=CCOCCSP(=O)(O)OP(=O)(O)O [Compound 4, S-[2-(allyloxy)ethyl]ester of the trisodium salt of thiodiphosphoric acid] | 70.7% | 130% | 299% | – | – | – | 10 µM | –
C[C@H](O)CCSP(=O)(O)OP(=O)(O)O [Compound 6, S-(3-hydroxybutyl)ester of the trisodium salt of biodiphosphoric acid] | 40% | 114% | 310% | – | – | – | 75 µM | –
C=C(C)CCSP(=O)(O)OP(=O)(O)O [Compound 8, S-(3-methyl-3-butenyl)ester of the triammonium salt of thiodiphosphoric acid] | 39% | 92.6% | 174% | 21% | 865% | 182% | 3.75 µM | resistance to hydrolysis (alkaline phosphatase): very much more resistant to hydrolysis; Percentage of non-hydrolysed compound (alkaline phosphatase; t = 0 min): 100%; Percentage of non-hydrolysed compound (alkaline phosphatase; t = 20 min): 90%; Percentage of non-hydrolysed compound (alkaline phosphatase; t = 30 min): 90%; Percentage of non-hydrolysed compound (alkaline phosphatase; t = 40 min): 90%; Percentage of non-hydrolysed compound (alkaline phosphatase; t = 50 min): 90%; Percentage of non-hydrolysed compound (alkaline phosphatase; t = 60 min): 90%
C/C(=C\CSP(=O)(O)OP(=O)(O)O)CO [Compound 9, S-[(E)-4-hydroxy-3-methyl-2-butenyl]ester of the trisodium salt of thiodiphosphoric acid] | 82.3% | 175% | 464% | – | – | – | 0.0048 µM | activity (γδ T cells producing cytokines) ([1]; in words, at 100 and 1000 µM): a very clear increase; EC50 relative to the EC50 for IPP (γδ T lymphocyte line; production of TNFα, γδ T lymphocyte line): 1000 times; Expansion Index (Vγ9Vδ2 cells; Donor A): 129.28; Expansion Index (Vγ9Vδ2 cells; Donor B): 80.96; Expansion Index (Vγ9Vδ2 cells; Donor C): 5.30; Expansion Index (Vγ9Vδ2 cells; Donor D): 59.10; Expansion Index (Vγ9Vδ2 cells; Donor E): 624.02; Expansion Index (Vγ9Vδ2 cells; Donor F): 35.37; Expansion Index (Vγ9Vδ2 cells; Donor G): 42.09
C=C(C)CCO[P@@](=O)(O)OP(=O)(O)O [IPP, isopentenyl pyrophosphate, reference compound] | 100% | – | – | 100% | – | – | – | resistance to hydrolysis (alkaline phosphatase): degrades rapidly; Percentage of non-hydrolysed compound (alkaline phosphatase; t = 0 min): 94%; Percentage of non-hydrolysed compound (alkaline phosphatase; t = 20 min): 48%; Percentage of non-hydrolysed compound (alkaline phosphatase; t = 30 min): 54%; Percentage of non-hydrolysed compound (alkaline phosphatase; t = 60 min): 27%
